Experimental findings from publication PMC8151276, “An Integrated Approach toward NanoBRET Tracers for Analysis of GPCR Ligand Engagement” (Molecules, 2021) are described below.

The test concerns the target T1, HTR2C (Homo sapiens, UniProt P28335).
T1 construct: purchased Promega (in-house HiBiT-GPCR construct library, NanoBRET)
T1 sequence (P28335 33-458): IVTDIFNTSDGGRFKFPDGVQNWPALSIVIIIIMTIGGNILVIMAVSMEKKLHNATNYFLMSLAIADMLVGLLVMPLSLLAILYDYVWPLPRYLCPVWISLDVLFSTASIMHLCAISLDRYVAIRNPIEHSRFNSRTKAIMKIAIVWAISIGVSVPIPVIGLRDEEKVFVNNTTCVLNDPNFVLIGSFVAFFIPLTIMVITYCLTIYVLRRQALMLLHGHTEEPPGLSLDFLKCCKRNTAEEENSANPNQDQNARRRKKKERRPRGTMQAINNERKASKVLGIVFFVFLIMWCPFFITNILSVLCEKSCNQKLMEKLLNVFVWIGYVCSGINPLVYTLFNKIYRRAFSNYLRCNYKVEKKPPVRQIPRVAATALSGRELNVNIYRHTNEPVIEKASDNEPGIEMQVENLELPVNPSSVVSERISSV
Put plainly: NanoBRET screen HiBiT-HTR2C in HEK293. Type of test: binding. On the procedure: Each tracer candidate was screened across the entire library of HiBiT-GPCR constructs using NanoBRET as the detection modality. As depicted in Figure 4A, the specificity of interactions was evaluated through decrease in BRET due to competitive displacement of a bound tracer by excess parental compound. Each tracer was analyzed for binding to each HiBiT-GPCR fusion in the absence and in the presence of competing parental compound. Briefly, HEK293 cells were transfected with HiBiT-GPCR constructs diluted into promoterless DNA to reduce expression and maximize translocation to the cell surface. Each tracer candidate was then screened at concentrations of 1 μM and 0.1 μM across cells expressing these fusions. Cells were treated for 1.5 h with tracer either alone or in the presence of 20 μM competing parental compound (i.e., control). BRET was measured upon addition of purified LgBiT and subsequent complementation with HiBiT genetically fused to a GPCR. The specificity of interactions was assessed through a decrease in BRET signal due to competitive displacement of the bound tracer. To further gauge the robustness of these interactions, the fold response over the control (i.e., BRETtracer/BRETcontrol) was calculated. We chose a 1.5-fold response, which translates to ≥7-fold signal over noise as the minimal threshold required to score an interaction as positive.
HiBiT-GPCR DNA constructs were diluted in 10 mM Tris pH 8 to a final concentration of 0.01 μg/μL, arrayed in 96-well plates and stored at −20 °C. For transfection, HEK293 cells were suspended in Opti-MEM (without phenol red) supplemented with 2% fetal bovine serum (Seradigm) and 100 units/mL penicillin–streptomycin (Gibco) at a final concentration of 220,000 cells/mL and dispensed into white 96-well plates at 90 μL/well. Subsequent transfections and screens were carried using an Agilent Bravo Automated Liquid Handling Platform. First, the 96-well HiBiT DNA arrays were diluted 25-fold in Opti-MEM (without serum or phenol red) to a final concentration of 0.0004 μg/μL and 20 μL of the diluted DNAs were transferred into new 96-well plates. Next, promoterless carrier DNA (1 μg/μL) was diluted 25-fold (0.04 μg/μL) and then dispensed into the diluted arrays at 20 μL/well. Following brief mixing, Viafect transfection reagent (Promega) diluted 16-fold into Opti-MEM was dispensed into the plates at 40 μL/well. After mixing by pipetting, plates were incubated for 10 min on the pipetting station deck. The DNA-transfection reagent complexes were then added to plates containing cells. To facilitate the screen, 10 μL of DNA-transfection reagent complexes were added in duplicates to the top 4 and bottom 4 rows, resulting in two identical 48-well arrays per plate. Plates with transfected cells were incubated for 18–20 h at 37 °C/5% CO2. A screen of each tracer across the entire library using two different concentrations requires duplicate plates of transfected cells. Depending on the number of tracers being screened, transfections can be scaled up using the same ratios. The next day, for each tracer, four 20× screening solutions in tracer dilution buffer (Promega) were prepared: two duplicates at final concentration of 20 μM and two duplicates at a final concentration of 2 μM. […] The four resulting solutions were diluted 4-fold in Opti-MEM without serum or phenol red to generate 5× solutions (5 µM and 0.5 µM tracer +/− 100 μM competing compound). To screen the library, a BioTek MultiFlo FX liquid dispenser was used to dispense 22.5 µL of tracer solution to the top 4 rows and 22.5 µL tracer + competing compound solution to the 4 bottom rows. Plates were briefly mixed on an orbital shaker and incubated for 1.5 h at room temperature. […] Plates were briefly mixed on an orbital shaker and incubated for 15 min to allow complementation.
On the technique in general: Bioluminescence resonance energy transfer reports proximity on the nanometre scale.

Regarding `O=C(CCOCCOCCOCCOCCNC(=O)CCc1ccc2n1[B-](F)(F)[N+]1=C(c3ccc[nH]3)C=CC1=C2)NCCCN1CCN(C2=Nc3ccccc3Oc3ccc(Cl)cc32)CC1` [Loxapine-a-2-NB590], the “NanoBRET Fold Response” value (HTR2C, tracer 0.1μM) amounted to 1.60 and the “NanoBRET Fold Response” value (HTR2C, tracer 1μM) is on record as 1.62.
Regarding `CCCn1c(=O)c2[nH]c(-c3ccc(OCC(=O)NCCNC(=O)CCOCCNC(=O)c4ccc(CNC(=O)CCc5ccc6n5[B-](F)(F)[N+]5=C(c7ccc[nH]7)C=CC5=C6)cc4)cc3)nc2n(CCC)c1=O` [XAC-3-NB590], the “NanoBRET Fold Response” value by setting is: (HTR2C, tracer 0.1μM) 1.45; (HTR2C, tracer 1μM) 0.88.
Turning to `CN(C)CCC=C1c2ccccc2CCc2ccc(C(=O)NCCNC(=O)CCOCCOCCOCCOCCNC(=O)CCc3ccc4n3[B-](F)(F)[N+]3=C(c5ccc[nH]5)C=CC3=C4)cc21` [Amitriptyline-a-2-NB590], under “tracer at 1μM”, the “NanoBRET Fold Response” value was 1.80.
Turning to `COc1ccccc1N1CCN(CCCCN2C(=O)c3ccc(CNC(=O)CCOCCOCCOCCOCCNC(=O)CCc4ccc5n4[B-](F)(F)[N+]4=C(c6ccc[nH]6)C=CC4=C5)cc3C2=O)CC1` [NAN-190-2-NB590], the “NanoBRET Fold Response” value reads like this: (HTR2C, tracer 0.1μM) 1.00; (HTR2C, tracer 1μM) 1.14.
Regarding `O=C(CCc1ccc2n1[B-](F)(F)[N+]1=C(c3ccc[nH]3)C=CC1=C2)NCc1ccc(C(=O)NCCOCCOCCNCC(O)COc2cccc3ccccc23)cc1` (centres unmarked) [Propranolol-3-NB590], the “NanoBRET Fold Response” value by setting is: (HTR2C, 0.1μM) 1.22; (HTR2C, 1μM) 1.21.
As to `COc1ccccc1N1CCN(CCCCN2C(=O)c3ccc(CNC(=O)CCOCCNC(=O)c4ccc(CNC(=O)CCc5ccc6n5[B-](F)(F)[N+]5=C(c7ccc[nH]7)C=CC5=C6)cc4)cc3C2=O)CC1` [NAN-190-3-NB590], the “NanoBRET Fold Response” value is, setting by setting: (HTR2C, tracer 0.1μM) 1.04; (HTR2C, tracer 1μM) 1.06.
The matching figures for `O=C(CCc1ccc2n1[B-](F)(F)[N+]1=C(c3ccc[nH]3)C=CC1=C2)NCc1ccc(C(=O)NCCOCCC(=O)N[C@@H]2CC[C@@]3(O)[C@H]4Cc5ccc(O)c6c5[C@@]3(CCN4CC3CC3)[C@H]2O6)cc1` [Naltrexone-3-NB590]: 0.79 and 1.03.
On to `CCOC(=O)c1cc(C#N)c(N2CCC(C(=O)NS(=O)(=O)Cc3ccccc3/C=C/C(=O)NCCNC(=O)CCc3ccc4n3[B-](F)(F)[N+]3=C(c5ccc[nH]5)C=CC3=C4)CC2)nc1C` [AZD1283-1-NB590], for which the “NanoBRET Fold Response” value came out at 0.95 (HTR2C, 0.1μM) and 1.04 (HTR2C, 1μM).
For `COc1ccc2[nH]c(-c3ccc(CNC(=O)CCOCCOCCOCCOCCNC(=O)CCc4ccc5n4[B-](F)(F)[N+]4=C(c6ccc[nH]6)C=CC4=C5)cc3)c(CCNC(C)=O)c2n1` [AzomelatoninICO9-2-NB590], the “NanoBRET Fold Response” value is, setting by setting: (0.1μM tracer) 1.02; (1μM tracer) 1.10.
As to `CC(C)N(CC[C@H](c1ccccc1)c1cc(CCNC(=O)CCOCCOCCOCCOCCNC(=O)CCc2ccc3n2[B-](F)(F)[N+]2=C(c4ccc[nH]4)C=CC2=C3)ccc1O)C(C)C` [Tolterodine-2-NB590], the “NanoBRET Fold Response” value is, setting by setting: (HTR2C, tracer 0.1μM) 1.09; (HTR2C, tracer 1μM) 1.01.
On to `N#CN=C(NCCCOc1cccc(CN2CCCCC2)c1)NCCNC(=O)CCOCCOCCOCCOCCNC(=O)CCc1ccc2n1[B-](F)(F)[N+]1=C(c3ccc[nH]3)C=CC1=C2` [Aminopotentidine-2-NB590], for which the “NanoBRET Fold Response” value reads like this: (HTR2C, tracer 0.1μM) 1.01; (HTR2C, tracer 1μM) 1.04.
In the case of `COc1ccc2c(n1)c(CCNC(C)=O)cn2CCNC(=O)CCc1ccc2n1[B-](F)(F)[N+]1=C(c3ccc[nH]3)C=CC1=C2` [Azamelatonin-1-NB590], the “NanoBRET Fold Response” value is reported as 0.91 (0.1μM tracer) and 0.91 (1μM tracer).
For the compound `CN(CCC=C1c2ccccc2CCc2ccccc21)C(=O)CCOCCOCCOCCOCCNC(=O)CCc1ccc2n1[B-](F)(F)[N+]1=C(c3ccc[nH]3)C=CC1=C2` [Amitriptyline-e-2-NB590], for the setting “tracer at 1μM”, the “NanoBRET Fold Response” value worked out at 1.03.
Turning to `N#CN/C(=N\CCNC(=O)c1ccc(N)cc1)NCCCOc1cccc(CN2CCCCC2)c1` [Aminopotentidine (unmodified)], the “NanoBRET Fold Response” value by setting is: (HTR2C, other tracers/Aminopotentidine (unmodified), 0.1μM) 1.48; (HTR2C, other tracers/Aminopotentidine (unmodified), 1μM) 1.66.
For `CC(C)N(CC[C@H](c1ccccc1)c1cc(CCNC(=O)c2ccc(CNC(=O)CCc3ccc4n3[B-](F)(F)[N+]3=C(c5ccc[nH]5)C=CC3=C4)cc2)ccc1O)C(C)C` [Tolterodine-BZ-NB590], the “NanoBRET Fold Response” value reads like this: (HTR2C, tracer 0.1μM) 0.86; (HTR2C, tracer 1μM) 1.55.
As for `O=C(CCc1ccc2n1[B-](F)(F)[N+]1=C(c3ccc[nH]3)C=CC1=C2)NCCOCCOCCNC(=O)OCCOCCN1CCN(C2=Nc3ccccc3Sc3ccccc32)CC1` [Quetiapine-a-2-NB590], the “NanoBRET Fold Response” value by setting is: (HTR2C, tracer 0.1μM) 0.99; (HTR2C, tracer 1μM) 1.17.
`Cc1cc2c(s1)Nc1ccccc1N=C2N1CCN(CCCNC(=O)CCOCCOCCOCCOCCNC(=O)CCc2ccc3n2[B-](F)(F)[N+]2=C(c4ccc[nH]4)C=CC2=C3)CC1` [Olanzapine-a-2-NB590]: the “NanoBRET Fold Response” value was 1.54 (HTR2C, tracer 0.1μM) and 1.22 (HTR2C, tracer 1μM).
`CN(C)CCC=C1c2ccccc2CCc2ccc(C(=O)NCCNC(=O)CCOCCOCCOCCOCCNC(=O)CCc3ccc4n3[B-](F)(F)[N+]3=C(c5ccc[nH]5)C=CC3=C4)cc21` [Amitriptyline-b-2-NB590]: the “NanoBRET Fold Response” value is, setting by setting: (tracer at 0.1μM, listed as amitriptyline-b-2-NB590) 1.74; (tracer at 1μM, listed as amitriptyline-b-2-NB590) 2.18.
On to `O=C(CCOCCOCCOCCOCCNC(=O)CCc1ccc2n1[B-](F)(F)[N+]1=C(c3ccc[nH]3)C=CC1=C2)NCCCN1CCN(C2=Nc3cc(Cl)ccc3Nc3ccccc32)CC1` [Clozapine-a-2-NB590], for which the “NanoBRET Fold Response” value (HTR2C, 0.1μM tracer) is on record as 1.89 and the “NanoBRET Fold Response” value (HTR2C, 1μM tracer) is recorded as 3.22.
In the case of `Cc1nc2n(c(=O)c1CCN1CCC(c3noc4cc(F)ccc34)CC1)CCCC2OC(=O)NCCOCCOCCOCCOCCNC(=O)CCc1ccc2n1[B-](F)(F)[N+]1=C(c3ccc[nH]3)C=CC1=C2` (centres unmarked) [Risperidone-2-NB590], the “NanoBRET Fold Response” value is, setting by setting: (HTR2C, tracer 0.1μM) 1.26; (HTR2C, tracer 1μM) 2.15.
